# Entries after “also recorded” stand apart in the source; their conditions may differ.
# How the values were obtained:
# [1] = system: collagen IV; assay: Fluorescent enhancement after antigen retrieval with addition of Triton, Collagen IV detection of blood vessels; settings: 0.5% Triton X-100 added to 5.0% ascorbic acid solution; 70° C., 30 minutes; 488 nm excitation; versus without Triton X-100
# From the text: Images are captured using 488 nm excitation.
# [2] = system: Collagen IV; assay: Antigen retrieval in adult human brain vasculature, Collagen IV staining; settings: paraformaldehyde fixed paraffin embedded adult human brain tissue (FIG. 7)
# Experimental: Paraformaldehyde fixed paraffin embedded tissue from adult human brain is treated with 2,3-dimethylmaleic acid as an antigen retrieval method as described.
# [3] = system: Collagen IV; assay: Immunohistochemical staining of Collagen IV on formalin fixed paraffin embedded mouse brain sections after antigen retrieval with formaldehyde scavengers and enhancer; parameters: key: − being non-reactive; Immunoreactivity was scored on a scale of − to +++; Immunoreactivity was scored on a scale of − to +++; +++ being highly reactive; settings: Table 8; 0.05% maleic acid alone or with aniline, concentrations in label; 45 minutes at 95° C.
# Experimental: 12-month-old C57Bl6J mice were housed under controlled environment conditions on a condition al 12 hour light dark cycle. Following sacrifice, brains were post-fixed in 4% paraformaldehyde for 72 hours at […] and then transferred to 70% ethanol solution where they were stored at 4° C. Tissue was paraffin-processed using convention dehydration and embedding, and then sectioned at 5 μm intervals.
# Tissues were deparaffinized and rehydrated. Slides were placed in a plastic Coplin jar containing either distilled water or a combination of formaldehyde scavengers in combination with an enhancer. Jars were covered with a loose fitting screw cap and heated in a pressure cooker for 45 minutes at 95° C. After heating, the Coplin jars were removed and allowed to cool and rinsed in TBST for five minutes.
# Immunohistochemical staining was performed using a three-step immunostaining technique using the ABC method. Briefly, all incubations were performed as follows: 1) primary antibodies were incubated overnight at 4° C., 2) secondary antibodies were incubated for 10 minutes at room temperature, 3) streptavidin-conjugated enzyme was incubated for 10 minutes at room temperature, 4) peroxidase substrate was incubated for 1 minute.
# [4] = system: blood vessels; assay: Antigen retrieval in paraformaldehyde fixed vascular tissue, visualization of blood vessels; settings: paraformaldehyde fixed tissue heated in solution of compound (FIGS. 4A-4E)
# From the text: Paraformaldehyde fixed tissue samples are heated in solutions of compounds prepared as described in Example 1 and the blood vessels in the tissue are visualized.
# [5] = system: GAPDH; assay: Dot blot of GAPDH in formaldehyde treated tissues; settings: maleic acid 1.6% to 12.8%, 95° C. for 30 minutes (FIG. 6B)
# [6] = system: Angiotensin I; assay: Mass spectrometry of formalin treated Angiotensin I after heating with aldehyde scavenging compounds; settings: 5% compound, 95° C., 45 minutes
# Experimental: Angiotensin I is treated with formalin at room temperature for 48 hours. […] Mass-spectrometry is used to analyze the compositions of the Angiotensin I before and after treatment by each compound. Samples of Angiotensin I before (FIG. 11A) and after (FIG. 11B) formalin treatments are used as the controls for the experiment. Peaks at m/z 1296 represent unmodified Angiotensin I. Peaks at m/z 1308 represent Angiotensin I with 1 methylene unit. Peaks at m/z 1320 represent Angiotensin I with 2 methylene units. Peaks at m/z 1338 represent Angiotensin I with 1 methylene unit and 1 hydroxymethylene group. Peaks at m/z 1350 represent Angiotensin I with 2 methylene units and 1 hydroxymethylene group.
# [7] = system: ACTH (18-39) peptide; assay: Mass spectrometry of formalin treated ACTH (18-39) peptide after heating with formaldehyde scavenging agents; settings: 5% compound, 98° C. for 45 minutes as printed with the result (method says 90° C.)
# Experimental: ACTH (18-39) peptide is treated with formalin at room temperature for 48 hours (FIG. 12A). […] The composition of the formalin treated ACTH after each treatment is analyzed using mass spectrometry. The results shown in FIGS. 12A-12D are used to investigate the ability of the agents to reverse formaldehyde adducts. […] Only a small amount of ACTH with 3 methylene units is detected.
# [8] = Autofluorescence of heated paraformaldehyde fixed paraffin embedded brain tissue; settings: 5% ascorbic acid; 70° C., 30 minutes; 488 nm excitation; versus tissue heated only in water
# From the text: Images are captured at same exposure and time.
compound,measurement,setting,value
Triton X-100,staining evenness and fluorescence intensity after antigen retrieval,[1],significant improvement in staining evenness and intensity; also recorded: enhancement of fluorescence
"C/C(C(=O)O)=C(\C)C(=O)O [2,3-dimethylmaleic acid]",detection of blood vessels using Collagen IV,[2],Blood vessels were detected
"O=C(O)/C=C\C(=O)O [0.05% Maleic acid, Maleic acid]","Result (immunoreactivity, Collagen IV staining)",[3],+
same,antigen retrieval with visualization of the blood vessels,[4],successful antigen retrieval
same,detection of GAPDH (dot blot),[5],parallel increase in the detection of GAPDH
same,amount of Angiotensin I with 2 methylene units (m/z 1320),[6],significantly reduce
same,content of unmodified Angiotensin I (m/z 1296),[6],higher content of unmodified Angiotensin I
same,"conversion of modified ACTH (1, 2 or 3 methylene groups) into unmodified ACTH (m/z 2465)",[7],convert almost all the modified ACTH
O=C1O[C@H]([C@@H](O)CO)C(O)=C1O [ascorbic acid],tissue autofluorescence,[8],dramatically reduces visible autofluorescence; also recorded: reduction of autofluorescence
same,retrieval of formalin adducts of Angiotensin I,[6],significant retrieval of formalin adducts
same,"conversion of modified ACTH (1, 2 or 3 methylene groups) into unmodified ACTH (m/z 2465)",[7],convert almost all the modified ACTH
